According to ChEMBL document CHEMBL1154164, “Design, synthesis, biological evaluation, and NMR studies of a new series of arylsulfones as selective and potent matrix metalloproteinase-12 inhibitors” (J Med Chem, 2009):

Key:
Interstitial collagenase = target: T1, Interstitial collagenase (Homo sapiens, UniProt P03956); experiment: Inhibition of para-aminophenylmercuric acetate-activated human pro-MMP1 after 4 hrs by fluorimetry
T1 sequence (P03956 whole entry): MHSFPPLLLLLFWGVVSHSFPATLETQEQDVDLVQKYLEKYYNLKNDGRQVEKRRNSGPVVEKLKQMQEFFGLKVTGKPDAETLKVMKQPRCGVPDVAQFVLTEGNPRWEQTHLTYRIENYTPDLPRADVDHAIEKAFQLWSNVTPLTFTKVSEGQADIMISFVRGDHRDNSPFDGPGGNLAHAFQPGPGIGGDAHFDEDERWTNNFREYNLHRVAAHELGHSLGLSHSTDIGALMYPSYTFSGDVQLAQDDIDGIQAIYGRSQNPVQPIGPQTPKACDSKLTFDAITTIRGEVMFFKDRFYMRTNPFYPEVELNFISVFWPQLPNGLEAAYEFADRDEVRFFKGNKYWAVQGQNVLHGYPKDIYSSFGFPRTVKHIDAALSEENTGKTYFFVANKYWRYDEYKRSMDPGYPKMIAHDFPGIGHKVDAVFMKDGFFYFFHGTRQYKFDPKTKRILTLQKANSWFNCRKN

[1] = target: T2, Macrophage metalloelastase (Homo sapiens, UniProt P39900); experiment: Inhibition of autoactivated human pro-MMP12 after 4 hrs by fluorimetry
T2 sequence (P39900 whole entry): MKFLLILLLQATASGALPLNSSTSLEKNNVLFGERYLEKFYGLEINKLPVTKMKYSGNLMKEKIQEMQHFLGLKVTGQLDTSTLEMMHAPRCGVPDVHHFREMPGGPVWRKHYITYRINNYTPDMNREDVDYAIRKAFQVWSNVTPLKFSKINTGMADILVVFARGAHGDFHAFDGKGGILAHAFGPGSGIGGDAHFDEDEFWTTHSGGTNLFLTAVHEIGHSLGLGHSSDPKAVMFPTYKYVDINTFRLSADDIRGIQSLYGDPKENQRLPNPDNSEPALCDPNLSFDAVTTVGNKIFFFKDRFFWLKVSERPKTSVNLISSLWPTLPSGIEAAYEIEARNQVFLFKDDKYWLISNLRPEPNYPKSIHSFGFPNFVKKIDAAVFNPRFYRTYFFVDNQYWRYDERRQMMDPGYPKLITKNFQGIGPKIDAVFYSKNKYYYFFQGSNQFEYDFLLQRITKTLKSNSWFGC

Stromelysin-1 = Stromelysin-1 (Homo sapiens, UniProt P08254); experiment: Inhibition of trypsin activated human pro-MMP3 after 4 hrs by fluorimetry
Chain of Stromelysin-1 (P08254 whole entry, the tested form may be a part): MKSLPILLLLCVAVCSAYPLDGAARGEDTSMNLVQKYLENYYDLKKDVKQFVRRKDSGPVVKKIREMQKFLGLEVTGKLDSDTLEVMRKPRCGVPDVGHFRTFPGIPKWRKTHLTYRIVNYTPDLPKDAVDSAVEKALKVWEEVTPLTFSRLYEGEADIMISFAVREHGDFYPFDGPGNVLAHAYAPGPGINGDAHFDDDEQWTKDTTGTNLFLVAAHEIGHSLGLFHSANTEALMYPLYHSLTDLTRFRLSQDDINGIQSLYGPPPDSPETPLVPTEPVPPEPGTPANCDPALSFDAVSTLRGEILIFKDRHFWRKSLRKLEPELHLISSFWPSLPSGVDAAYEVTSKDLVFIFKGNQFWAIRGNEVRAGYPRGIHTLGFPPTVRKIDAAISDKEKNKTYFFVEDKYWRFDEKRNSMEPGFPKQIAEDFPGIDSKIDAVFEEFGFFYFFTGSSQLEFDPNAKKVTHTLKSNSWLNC

[2] = target: Matrix metalloproteinase-16 (Homo sapiens, UniProt P51512); experiment: Inhibition of human recombinant pro-MMP16 catalytic domain after 4 hrs by fluorimetry
Chain of Matrix metalloproteinase-16 (P51512 whole entry, the tested form may be a part): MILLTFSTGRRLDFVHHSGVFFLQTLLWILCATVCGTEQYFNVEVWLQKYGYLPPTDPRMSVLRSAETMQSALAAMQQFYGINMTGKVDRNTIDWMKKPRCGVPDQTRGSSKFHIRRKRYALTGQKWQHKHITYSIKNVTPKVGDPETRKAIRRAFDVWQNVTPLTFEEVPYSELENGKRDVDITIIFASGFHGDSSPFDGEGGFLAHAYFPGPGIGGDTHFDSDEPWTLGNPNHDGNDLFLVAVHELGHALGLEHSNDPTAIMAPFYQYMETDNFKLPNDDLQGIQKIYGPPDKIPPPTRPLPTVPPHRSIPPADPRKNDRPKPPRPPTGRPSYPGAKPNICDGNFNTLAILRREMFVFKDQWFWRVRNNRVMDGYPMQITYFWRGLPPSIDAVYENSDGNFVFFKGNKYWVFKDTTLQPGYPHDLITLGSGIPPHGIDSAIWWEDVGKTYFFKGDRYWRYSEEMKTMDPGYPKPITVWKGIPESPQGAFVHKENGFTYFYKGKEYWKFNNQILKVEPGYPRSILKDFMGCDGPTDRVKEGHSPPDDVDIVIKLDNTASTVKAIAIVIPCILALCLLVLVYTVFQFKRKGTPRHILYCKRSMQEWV

Neutrophil collagenase = Neutrophil collagenase (Homo sapiens, UniProt P22894); experiment: Inhibition of para-aminophenylmercuric acetate-activated human pro-MMP8 after 4 hrs by fluorimetry
Chain of Neutrophil collagenase (P22894 whole entry, the tested form may be a part): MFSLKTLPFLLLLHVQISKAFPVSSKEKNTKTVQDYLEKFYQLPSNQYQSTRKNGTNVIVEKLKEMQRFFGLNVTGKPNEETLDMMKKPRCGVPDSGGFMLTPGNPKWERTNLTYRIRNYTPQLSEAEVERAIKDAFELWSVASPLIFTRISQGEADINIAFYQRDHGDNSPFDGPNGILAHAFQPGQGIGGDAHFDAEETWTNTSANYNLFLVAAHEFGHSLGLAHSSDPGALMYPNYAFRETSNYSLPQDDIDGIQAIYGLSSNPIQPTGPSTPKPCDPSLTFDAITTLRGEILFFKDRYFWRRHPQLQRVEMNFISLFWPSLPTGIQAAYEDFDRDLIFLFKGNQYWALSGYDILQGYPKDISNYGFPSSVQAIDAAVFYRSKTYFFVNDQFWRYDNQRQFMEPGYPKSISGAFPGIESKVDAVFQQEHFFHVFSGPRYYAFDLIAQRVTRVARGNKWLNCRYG

[3] = target: Matrix metalloproteinase-14 (Homo sapiens, UniProt P50281); experiment: Inhibition of human recombinant pro-MMP14 catalytic domain after 4 hrs by fluorimetry
[4] = target: Matrix metalloproteinase-9 (Homo sapiens, UniProt P14780); experiment: Inhibition of para-aminophenylmercuric acetate-activated human recombinant pro-MMP9 catalytic domain after 4 hrs by fluorimetry
Chain of Matrix metalloproteinase-9 (P14780 whole entry, the tested form may be a part): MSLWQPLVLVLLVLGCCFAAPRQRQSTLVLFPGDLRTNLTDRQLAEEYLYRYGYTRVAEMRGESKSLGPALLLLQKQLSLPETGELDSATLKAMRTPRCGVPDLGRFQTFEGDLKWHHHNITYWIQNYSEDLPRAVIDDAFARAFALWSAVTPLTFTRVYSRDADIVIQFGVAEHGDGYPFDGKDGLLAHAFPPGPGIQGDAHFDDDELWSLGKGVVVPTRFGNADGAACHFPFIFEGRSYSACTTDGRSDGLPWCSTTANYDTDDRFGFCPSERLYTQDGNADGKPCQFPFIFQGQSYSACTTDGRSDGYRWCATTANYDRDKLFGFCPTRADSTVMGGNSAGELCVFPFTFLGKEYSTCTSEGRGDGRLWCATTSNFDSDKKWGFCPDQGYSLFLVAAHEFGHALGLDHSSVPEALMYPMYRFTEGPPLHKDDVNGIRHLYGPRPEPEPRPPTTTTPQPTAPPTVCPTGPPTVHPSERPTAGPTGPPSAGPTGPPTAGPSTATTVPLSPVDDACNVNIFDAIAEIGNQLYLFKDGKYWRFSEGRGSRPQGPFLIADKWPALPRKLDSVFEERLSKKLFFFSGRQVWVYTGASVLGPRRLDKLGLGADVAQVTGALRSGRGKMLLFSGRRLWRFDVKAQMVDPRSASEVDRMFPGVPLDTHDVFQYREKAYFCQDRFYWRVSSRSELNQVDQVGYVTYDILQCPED

[5] = target: 72 kDa type IV collagenase (Homo sapiens, UniProt P08253); experiment: Inhibition of para-aminophenylmercuric acetate-activated human recombinant pro-MMP2 catalytic domain after 4 hrs by fluorimetry
Chain of 72 kDa type IV collagenase (P08253 whole entry, the tested form may be a part): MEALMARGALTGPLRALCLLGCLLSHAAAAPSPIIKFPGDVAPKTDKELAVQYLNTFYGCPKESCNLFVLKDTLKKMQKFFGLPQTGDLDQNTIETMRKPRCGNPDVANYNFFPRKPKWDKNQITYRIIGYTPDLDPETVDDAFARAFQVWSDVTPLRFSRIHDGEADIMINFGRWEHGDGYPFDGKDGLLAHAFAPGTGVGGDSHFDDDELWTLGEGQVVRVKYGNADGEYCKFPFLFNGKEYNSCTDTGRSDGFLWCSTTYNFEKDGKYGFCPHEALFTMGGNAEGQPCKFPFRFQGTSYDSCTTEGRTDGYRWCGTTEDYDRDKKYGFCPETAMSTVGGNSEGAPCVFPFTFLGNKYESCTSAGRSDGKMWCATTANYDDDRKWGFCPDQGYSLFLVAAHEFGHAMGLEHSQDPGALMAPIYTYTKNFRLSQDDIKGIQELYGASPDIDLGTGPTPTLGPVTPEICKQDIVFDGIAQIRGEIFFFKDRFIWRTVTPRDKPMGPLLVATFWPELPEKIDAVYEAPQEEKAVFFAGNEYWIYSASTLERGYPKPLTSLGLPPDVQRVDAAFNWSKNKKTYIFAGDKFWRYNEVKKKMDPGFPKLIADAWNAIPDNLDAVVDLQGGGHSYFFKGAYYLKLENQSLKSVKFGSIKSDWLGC

Collagenase 3 = Collagenase 3 (Homo sapiens, UniProt P45452); experiment: Inhibition of para-aminophenylmercuric acetate-activated human pro-MMP13 after 4 hrs by fluorimetry
[6] = target: T2, Macrophage metalloelastase; experiment: Inhibition of autoactivated human pro-MMP12 after 30 mins preincubation by fluorimetry
[7] = target: T2, Macrophage metalloelastase; experiment: Inhibition of autoactivated human pro-MMP12 after 1 hr preincubation by fluorimetry

Row | Structure (SMILES) | IC50 (Interstitial collagenase) | IC50 [1] | IC50 (Stromelysin-1) | IC50 [2] | IC50 (Neutrophil collagenase) | IC50 [3] | IC50 [4] | IC50 [5] | IC50 (Collagenase 3) | IC50 [6] | IC50 [7]
1 | CC(C)ON([C@@H](C(=O)O)C(C)C)S(=O)(=O)c1ccc(-c2ccccc2)cc1 | > 100000 nM | 410 nM | 54000 nM | 18000 nM | 2000 nM | 10000 nM | 24000 nM | 1500 nM | 7900 nM | – | –
2 | COc1ccc(-c2ccc(S(=O)(=O)c3ccccc3C(C)C(=O)NO)cc2)cc1 (racemic) | > 10000 nM | 2.7 nM | 1400 nM | 150 nM | 54 nM | 360 nM | 69 nM | 7 nM | 12 nM | – | –
3 | COc1ccc(Oc2ccc(S(=O)(=O)c3ccccc3CC(=O)NO)cc2)cc1 | 3500 nM | 0.2 nM | 21 nM | 32 nM | 5.1 nM | 33 nM | 0.8 nM | 3.5 nM | 4.1 nM | 0.89 nM | 0.85 nM
4 | COc1ccc(Oc2ccc(S(=O)(=O)c3ccccc3CC(=O)O)cc2)cc1 | > 10000 nM | 380 nM | > 10000 nM | 6500 nM | 1200 nM | 8100 nM | 420 nM | 710 nM | 940 nM | – | –
5 | O=C(NO)c1ccccc1S(=O)(=O)c1ccc(Oc2ccccc2)cc1 | > 10000 nM | 1200 nM | 27000 nM | 1300 nM | 620 nM | 1300 nM | 690 nM | 1200 nM | 2700 nM | – | –
6 | COc1ccc(Oc2ccc(S(=O)(=O)c3ccccc3C(=O)NO)cc2)cc1 | > 10000 nM | 920 nM | 22000 nM | 6000 nM | 1900 nM | 4000 nM | 410 nM | 1300 nM | 2700 nM | – | –
7 | COc1ccc(-c2ccc(S(=O)(=O)c3ccccc3C(=O)NO)cc2)cc1 | 28000 nM | 70 nM | 4000 nM | 1200 nM | 87 nM | 1300 nM | 930 nM | 100 nM | 260 nM | – | –
8 | COc1ccc(-c2ccc(S(=O)(=O)c3ccccc3C(C)C(=O)O)cc2)cc1 (racemic) | > 10000 nM | 310 nM | 8000 nM | 1100 nM | 290 nM | 2100 nM | 3000 nM | 190 nM | 190 nM | – | –
9 | COc1ccc(-c2ccc(S(=O)(=O)c3ccccc3CC(=O)NO)cc2)cc1 | 8300 nM | 4.8 nM | 1600 nM | 130 nM | 120 nM | 710 nM | 94 nM | 9.7 nM | 25 nM | – | –
10 | COc1ccc(S(=O)(=O)c2ccccc2C(=O)NO)cc1 | > 100000 nM | 14000 nM | > 50000 nM | 31000 nM | 72000 nM | 25000 nM | 24000 nM | 35000 nM | 28000 nM | – | –
11 | COc1ccc(S(=O)(=O)c2ccccc2CC(=O)NO)cc1 | 4100 nM | 32 nM | 730 nM | 130 nM | 280 nM | 200 nM | 98 nM | 230 nM | 84 nM | – | –
12 | O=C(Cc1ccccc1S(=O)(=O)c1ccc(-c2ccccc2)cc1)NO | 29000 nM | 6 nM | 23000 nM | 220 nM | 370 nM | 940 nM | 310 nM | 38 nM | 62 nM | – | –
13 | COc1ccc(S(=O)(=O)c2ccccc2CC(=O)O)cc1 | > 100000 nM | 89000 nM | > 100000 nM | 93000 nM | 74000 nM | 77000 nM | > 100000 nM | 58000 nM | 55000 nM | – | –

Continued, in another order:

Row | IC50 (Interstitial collagenase) | IC50 [1] | IC50 (Stromelysin-1) | IC50 [2] | IC50 (Neutrophil collagenase) | IC50 [3] | IC50 [4] | IC50 [5] | IC50 (Collagenase 3) | Structure (SMILES) | IC50 [6] | IC50 [7]
14 | 490 nM | 0.2 nM | – | 51 nM | – | – | – | 0.8 nM | 4.1 nM | CC(C)ON([C@@H](C(=O)NO)C(C)C)S(=O)(=O)c1ccc(-c2ccccc2)cc1 | – | –
15 | > 200000 nM | 5800 nM | 60000 nM | 110000 nM | 9200 nM | 120000 nM | 51000 nM | 9900 nM | 20000 nM | C[S+]([O-])c1ccc(Oc2ccc(S(=O)(=O)c3ccccc3C(=O)NO)cc2)cc1 (stereo not given) | – | –
16 | 4400 nM | 140 nM | 7500 nM | 730 nM | 99 nM | 740 nM | 730 nM | 47 nM | 78 nM | COc1ccc(-c2ccc(S(=O)(=O)c3ccccc3CC(=O)O)cc2)cc1 | 170 nM | 150 nM
17 | 23000 nM | 1500 nM | 74000 nM | 4300 nM | 290 nM | 5400 nM | 7300 nM | 510 nM | 260 nM | O=C(O)Cc1ccccc1S(=O)(=O)c1ccc(-c2ccccc2)cc1 | – | –
18 | 12000 nM | 6 nM | 5600 nM | 470 nM | 390 nM | 860 nM | 340 nM | 73 nM | 74 nM | CC(C(=O)NO)c1ccccc1S(=O)(=O)c1ccc(-c2ccccc2)cc1 (racemic) | – | –
19 | 51000 nM | 1900 nM | > 100000 nM | 6300 nM | 1900 nM | 18000 nM | 20000 nM | 2400 nM | 1800 nM | CC(C(=O)O)c1ccccc1S(=O)(=O)c1ccc(-c2ccccc2)cc1 (racemic) | – | –
20 | 73000 nM | 590 nM | 45000 nM | 5100 nM | 1000 nM | 8300 nM | 7700 nM | 1300 nM | 1400 nM | O=C(NO)c1ccccc1S(=O)(=O)c1ccc(-c2ccccc2)cc1 | – | –
